These results are taken from ChEMBL document CHEMBL3588773, “Volume of Distribution in Drug Design” (J Med Chem, 2015).

Series [1] can be described thus: Volume of distribution at steady state in Sprague-Dawley rat at 2.5 mg/kg. The series is classed as ADME, organism-based. Particulars: in vivo, read-out: Vdss.
In another series the target is Heat shock protein HSP90 (Homo sapiens, UniProt P07900+P08238). The experiment in a line: Inhibition of human recombinant HSP90 by scintillation proximity competition binding assay. Type of series: protein assay. On the technique in general: In a scintillation proximity assay essentially only radioactivity close to the scintillant gives light.
The nature of series [2]: Lipophilicity, log P of the compound. The following applies: octanol/water.
The nature of series [3]: Distribution coefficient, log D of the compound. The following applies: octanol/water. Type of series: physicochemical.
The species entered for series [4] is Homo sapiens. Briefly: Unbound volume of distribution at steady state in human. The following applies: in vivo. The series is classed as ADME, organism-based.
For series [5], the species on record is Homo sapiens. Briefly: Unbound intrinsic clearance in human. The series is classed as ADME, organism-based. The following applies: in vivo.
The subject of the next series is Plasma. Briefly: (§1) Unbound fraction in human plasma. Type of series: ADME, cell-free.
Series [6] in a line: Volume of distribution at steady state in human. The following applies: in vivo.
A short description of series [7]: as §1. The series is classed as ADME, cell-free.
Series [8] can be described thus: Dissociation constant of the compound. Type of series: physicochemical.
The nature of series [9]: Volume of distribution at steady state in mouse. The series is classed as ADME, organism-based. Particulars: in vivo, read-out: Vdss.
Series [10] can be described thus: Volume of distribution at steady state in wild type mouse. The series is classed as ADME, organism-based. Particulars: in vivo, read-out: Vdss.

Take `CC(C)(CC(F)(F)F)NC(=O)N1Cc2nc(N)nc(-c3c(Cl)cc(Cl)cc3OCCn3cccn3)c2C1`: the Vd in [1] was found to be 2 L/kg. Further, the Ki on Heat shock protein HSP90 amounted to 9.7 nM.

For the compound `CC(C)(CC(F)(F)F)NC(=O)N1Cc2nc(N)nc(-c3c(Cl)cc(Cl)cc3OCCn3cc(F)cn3)c2C1`, the Vd in series [1] amounted to 13 L/kg. For the same compound, at Heat shock protein HSP90, the Ki amounted to 2.1 nM.

With `CC(F)(F)CC(C)(C)NC(=O)N1Cc2nc(N)nc(-c3c(Cl)cc(Cl)cc3OCCn3cccn3)c2C1`, the Vd in series [1] came out at 1.8 L/kg. Besides, on Heat shock protein HSP90, the Ki was found to be 6.6 nM.

As for `CC(F)(F)CC(C)(C)NC(=O)N1Cc2nc(N)nc(-c3c(Cl)cc(Cl)cc3OCCn3cc(F)cn3)c2C1`, the Vd in series [1] came out at 10 L/kg. In addition, the Ki at Heat shock protein HSP90 came to 1.7 nM.

In the case of `CC(C)(NC(=O)N1Cc2nc(N)nc(-c3c(Cl)cc(Cl)cc3OCCn3cccn3)c2C1)C12CC(C1)C2`, the Vd in [1] was determined as 1.8 L/kg. Also, the Ki at Heat shock protein HSP90 came out at 7.3 nM.

Take `CC(C)(NC(=O)N1Cc2nc(N)nc(-c3c(Cl)cc(Cl)cc3OCCn3cc(F)cn3)c2C1)C12CC(C1)C2`: the Vd in series [1] stood at 11 L/kg. Further, the Ki on Heat shock protein HSP90 is on record as 3.3 nM.

With `CCOC(=O)C1=C(COCCN)NC(C)=C(C(=O)OC)C1c1ccccc1Cl` (stereo not given) [AMLODIPINE], the logP in [2] is 3.3. The logD in series [3] (read-out: logD) amounted to 1.2.

Compound `CC(C)NCC(O)COc1ccc(CCOCC2CC2)cc1` (stereo not given) [BETAXOLOL] had a logD in [3] of 1.1. The compound also registered a Vduss in the series filed under Homo sapiens [4] of 13 L/kg. Moreover, in the series listed under Homo sapiens [5], the CL free came to 13 mL/min/kg.

In [2], `CN(C)CCC(c1ccc(Cl)cc1)c1ccccn1` (stereo not given) [CHLORPHENIRAMINE] registered a logP of 3.4. The compound also displayed a Fu in the series with Plasma of 0.056. Besides, the logD in [3] (read-out: logD) is 1.5. The same compound registered a Vduss in the series listed under Homo sapiens [4] of 178 L/kg. The same compound registered a Vd in series [6] of 10 L/kg.

For the compound `OC(Cn1cncn1)(Cn1cncn1)c1ccc(F)cc1F` [FLUCONAZOLE], in the series listed under Homo sapiens [4], the Vduss amounted to 0.84 L/kg.

In series [7], `CNCCC(Oc1ccc(C(F)(F)F)cc1)c1ccccc1` (stereo not given) [FLUOXETINE] returned an unbound share (fraction unbound) of 0.06. Besides, the Vduss in the series listed under Homo sapiens [4] was found to be 71 L/kg. The compound also showed a Vd in series [6] of 4.3 L/kg. Besides, the pKa in series [8] turned out to be 10.5.

Regarding `O=C(CCCN1CCC(O)(c2ccc(Cl)cc2)CC1)c1ccc(F)cc1` [HALOPERIDOL], in series [9], the Vd stood at 0.6 L/kg.

In the case of `COc1ccc2c(c1)c(CC(=O)O)c(C)n2C(=O)c1ccc(Cl)cc1` [INDOMETHACIN], the Fu in the series with Plasma stood at 0.01. Further, the logD in series [3] (read-out: logD) came out at 0.7. In the series filed under Homo sapiens [4], the Vduss amounted to 9.6 L/kg.

In the case of `CC(C(=O)O)c1cccc(C(=O)c2ccccc2)c1` (stereo not given) [KETOPROFEN], the logP in series [2] came out at 2.9. In series [3] (read-out: logD), the logD came to 0.2.

`COCCc1ccc(OCC(O)CNC(C)C)cc1` (stereo not given) [METOPROLOL]: the logD in series [3] (read-out: logD) was -0.1. For the same compound, the Vduss in the series listed under Homo sapiens [4] was determined as 4 L/kg. In the series listed under Homo sapiens [5], this compound came in with a CL free of 33 mL/min/kg.

`COCCOC(=O)C1=C(C)NC(C)=C(C(=O)OC(C)C)C1c1cccc([N+](=O)[O-])c1` (stereo not given) [NIMODIPINE] had a logP in series [2] of 4.2.

In the case of `CC[C@H](C)C(=O)O[C@H]1C[C@H](O)C=C2C=C[C@H](C)[C@H](CC[C@@H](O)C[C@@H](O)CC(=O)O)[C@H]21` [PRAVASTATIN], the Vd in [10] amounted to 0.27 L/kg.

As for `CCC(C)(C)C(=O)O[C@H]1C[C@@H](C)C=C2C=C[C@H](C)[C@H](CC[C@@H]3C[C@@H](O)CC(=O)O3)[C@H]21` [SIMVASTATIN], the Vd in [10] was 14 L/kg.

On to `O=c1n(CCCN2CCN(c3cccc(Cl)c3)CC2)nc2ccccn12` [TRAZODONE], for which, in series [9], the Vd is 18 L/kg.

By Ki is commonly meant a dissociation constant, usually derived from enzyme kinetics or from competition with a known ligand. As a reminder, the logP is a log measure of how a compound divides between an organic and an aqueous phase. Low values mean lower lipophilicity, high ones higher lipophilicity. A word on the logD: it is the decadic logarithm of the distribution of all forms, ionised or not, between an organic phase and buffer at a given pH. The term fraction unbound denotes the share of the substance not bound to proteins or other matrix. A lower fraction unbound goes with little free substance. For orientation: pKa means the negative logarithm of the acid dissociation constant. Low values mean a group that gives up its proton readily, high ones a group that holds its proton tightly.
